The values that follow come from paper PMC9503009, “Determining Ligand and Ion-Induced Conformational Changes in Serotonin Transporter with Its Fluorescent Substrates” (International Journal of Molecular Sciences, 2022).

Read-outs that look alike come from different tables or passages of the source.

Assay type in all cases: cell-based
One test concerns the target T1, SERT C109A (Rattus norvegicus, UniProt P31652, C109A).
T1 construct: expressed in transfected cells
The test is described as follows: MTSET inhibition of APP+ uptake in live cells (extracellular pathway cysteine accessibility). On the procedure:
Figure 3 Reactivity of the extracellular cysteine mutants with MTSET. (A) MTSET concentration-dependent inhibition of APP^+ uptake. The cells stably expressing C109A, Y107C/C109C, or S404C/C109A were incubated for 15 min with indicated concentrations of MTSET. The MTSET concentration giving half-maximal inhibition of APP^+ accumulation in the cells was used to calculate inactivation rate constants as plotted in (B). In this experiment, half-maximal MTSET concentrations were […] for C109A, 0.011 ± 0.006 mM for Y107C/C109A, and 0.0025 ± 0.0008 mM for S404C/C109A, respectively. Representative images of APP^+ uptake by C109A, Y107C/C109A, or S404C/C109A under various MTSET concentrations were shown in Supplemental Figure S1. The experiment was repeated twice with similar results. (B) Rate constants of MTSET inhibition of APP^+ uptake. At the half-maximal concentration, the half-time is the assay time (15 min) and the first-order rate constant is 7.7 × 10^−4 s^−1. […]
Accessibility of the cysteine residues in the extracellular pathway was measured by reactivity of Y107C/C109A and S404C/C109A mutants with MTSET. […] The extent of APP^+ accumulated in the cells was determined by confocal imaging analysis in the live cells. […] The MTSET concentration causing half-maximal inactivation was determined and used to calculate the rate constant for cysteine modification, as described previously.

The target of a further test is T2, SERT Y107C/C109A (Rattus norvegicus, UniProt P31652, C109A/Y107C).
T2 construct: expressed in transfected cells
The description is as above. Conditions: Y107C/C109A. On the procedure: (§1) Figure 3 Reactivity of the extracellular cysteine mutants with MTSET. (A) MTSET concentration-dependent inhibition of APP^+ uptake. The cells stably expressing C109A, Y107C/C109C, or S404C/C109A were incubated for 15 min with indicated concentrations of MTSET. The MTSET concentration giving half-maximal inhibition of APP^+ accumulation in the cells was used to calculate inactivation rate constants as plotted in (B). […] Representative images of APP^+ uptake by C109A, Y107C/C109A, or S404C/C109A under various MTSET concentrations were shown in Supplemental Figure S1. […] (B) Rate constants of MTSET inhibition of APP^+ uptake. At the half-maximal concentration, the half-time is the assay time (15 min) and the first-order rate constant is 7.7 × 10^−4 s^−1. This rate constant was divided by the half maximal MTSET concentration from (A) to obtain the pseudo first-order modification rate constant. Error bars represent SEM of three experiments.
(A) MTSET concentration-dependent inhibition of APP^+ uptake. […] After washing to remove excess MTSET and ligands, APP^+ uptake was measured as described under “Materials and Methods”. […] (B) Rate constants of MTSET inhibition of APP^+ uptake. The IC50 values of MTSET inhibition were used to calculate rate constants as described under “Materials and Methods”. Error bars represent SEM from three experiments.
(§2) The cells stably expressing Y107C/C109A or S404C/C109A were preincubated with indicated ligands and MTSET at a concentration of 0.01 mM for Y107C/C109A or 0.002 mM for S404C/C109A at 22 °C for 15 min, respectively. At the end of this incubation, cells were washed free of MTSET and ligands into KRH buffer containing NaCl and APP^+. APP^+ uptake was measured as described under “Materials and Methods”. Error bars represent SEM from three experiments. Asterisks and hashtags indicate statistically significant changes (p < 0.05) in the accumulated APP^+ fluorescence compared with the corresponding control (MTSET alone).
The cells stably expressing Y107C/C109A were treated at 22 °C for 15 min with indicated concentrations of MTSET in the absence or presence of 10 μM vilazodone. After washing to remove excess MTSET and vilazodone, APP^+ uptake was measured as described under “Materials and Methods”. […] The IC50 values of MTSET inhibition were used to calculate rate constants as described under “Materials and Method”. Error bars represent SEM from three experiments. […] After washing to remove excess MTSEA and vilazodone, ASP^+ binding was measured as described under “Materials and Methods”. […] The IC50 values of MTSEA inhibition of ASP^+ binding were converted to rate constants.

The target of a further test is T3, SERT S404C/C109A (Rattus norvegicus, UniProt P31652, C109A/S404C).
T3 construct: expressed in transfected cells
The test is described as above. The settings on record: for IC50: S404C/C109A. The method, then:
as §1, §2
Accessibility of the cysteine residues in the extracellular pathway was measured by reactivity of Y107C/C109A and S404C/C109A mutants with MTSET. The cells stably expressing Y107C/C109A or S404C/C109A were incubated with MTSET over a range of concentrations in HEPES buffer containing indicated ligands or ions at 22 °C for 15 min. After excess MTSET and ligands were removed by rapid 3 × washing with the same buffer, the cells were then incubated with APP^+ at a final concentration of 2 μM in KRH buffer at 22 °C for another 5 min. The extent of APP^+ accumulated in the cells was determined by confocal imaging analysis in the live cells. To measure the effects of antidepressants, substrate 5-HT, or other ligands such as 5-HTP or tryptophan, where added, was present at 10 μM. To measure the effects of ions, 150 mM […] (NMDG) gluconate, and NMDG chloride, sodium isethionate, or NaCl was used as indicated. These measurements of reactivity depend on the ability of MTSET to inactivate APP^+ transport activity by an allosteric mechanism. The MTSET concentration causing half-maximal inactivation was determined and used to calculate the rate constant for cysteine modification, as described previously.

The next test has as its target T4, SERT S277C/X5C (Rattus norvegicus, UniProt P31652, C109A/C15A/C21A/C357I/C622A/S277C).
T4 construct: expressed in transfected cells
The experiment in a line: MTS reagent inhibition of ASP+ binding in digitonin-permeabilized cells (cytoplasmic pathway cysteine accessibility). The settings on record: S277C/X5C, 25 μg/mL digitonin. On the procedure: After 3 × rapid washing with KRH buffer, APP^+ or ASP^+ accumulation was measured as described under “Materials and Methods”. […] These representative images were parallelly acquired from one experiment. […] After 3 × washing, ASP^+ binding to the cell membrane was measured as described under “Materials and Methods”. […] (D) The effects of MTSET on ASP^+ binding of S277C/X5C and X5C. […] After 3 × rapid washing, ASP^+ binding was measured as described under “Materials and Methods”.
After washing to remove excess MTSEA and ligands, ASP^+ binding was measured as described under “Materials and Methods”. […] The IC50 values of MTSEA inhibition of ASP^+ binding were converted to rate constants.
The cells stably expressing Y107C/C109A were treated at 22 °C for 15 min with indicated concentrations of MTSET in the absence or presence of 10 μM vilazodone. After washing to remove excess MTSET and vilazodone, APP^+ uptake was measured as described under “Materials and Methods”. […] The IC50 values of MTSET inhibition were used to calculate rate constants as described under “Materials and Method”. Error bars represent SEM from three experiments. […] After washing to remove excess MTSEA and vilazodone, ASP^+ binding was measured as described under “Materials and Methods”. […] The IC50 values of MTSEA inhibition of ASP^+ binding were converted to rate constants. […]
For cytoplasmic pathway accessibility, measurements were performed with the cells stably expressing S277C/X5C. […] The cells, then, were washed free of unreacted MTSEA and ligands, ASP^+ binding was measured by adding 500 μL KRH buffer containing 10 μM ASP^+ and incubating at 22 °C for 5 min. Excess ASP^+ was removed by 3 × rapid washing with KRH buffer and ASP^+ fluorescence retained in the cell membrane was measured by confocal imaging analysis in the permeabilized cells. […] The MTSEA IC50 value was determined and used to calculate the rate constant for S277C/X5C modification.

Setting [1] is: 15 min incubation with MTSET, read-out: half-maximal MTSET concentration for inhibition of APP+ accumulation.
Setting [2] is: constant concentration used in simplified assay, read-out: MTSET IC50 value (APP+ uptake inhibition).

Take `C[N+](C)(C)CCSS(C)(=O)=O.[Br-]` [MTSET, 2-(Trimethylammonium) ethyl methanethiosulfonate bromide]: the IC50 at SERT C109A (C109A, 15 min incubation with MTSET, read-out: half-maximal MTSET concentration for inhibition of APP+ accumulation) was greater than 1000 µM; at SERT Y107C/C109A (setting [1]) it was 11 ± 6 µM; at SERT Y107C/C109A (setting [2]), 10 µM; on SERT S404C/C109A (setting [1]), 2.5 ± 0.8 µM; on SERT S404C/C109A (setting [2]), 2 µM. The “effect on transport activity (APP+ uptake)” value on SERT C109A (background construct C109A, MTSET 0.1 μM to 1 mM) is “little effect”. Besides, at SERT S404C/C109A (pseudo first-order rate constants), the “reactivity with MTSET of S404C/C109A relative to Y107C/C109A (faster by)” value is 4-5 fold. The “accessibility of Cys277 to MTSET” value at SERT S277C/X5C is “not accessible”.
